{"source": "PubChem BioAssay (NCI)", "assay_in_all_cases": "NCI-60 cell line screen, 48 h", "key": {"[1]": {"tested_on": "SK-OV-3 ovarian"}, "[2]": {"tested_on": "NCI-H460 lung"}, "[3]": {"tested_on": "SF-268 CNS"}, "[4]": {"tested_on": "U251 CNS"}, "[5]": {"tested_on": "T-47D breast"}, "[6]": {"tested_on": "HOP-92 NSCLC"}, "[7]": {"tested_on": "NCI-H226 lung"}, "[8]": {"tested_on": "CAKI-1 renal"}, "[9]": {"tested_on": "OVCAR-5 ovarian"}, "[10]": {"tested_on": "HT29 colon"}, "[11]": {"tested_on": "KM12 colon"}, "[12]": {"tested_on": "MOLT-4 leukemia"}, "[13]": {"tested_on": "SK-MEL-5 melanoma"}, "[14]": {"tested_on": "K-562 leukemia"}, "[15]": {"tested_on": "DU-145 prostate"}, "[16]": {"tested_on": "HCT-116 colon"}, "[17]": {"tested_on": "UACC-257 melanoma"}, "[18]": {"tested_on": "SR leukemia"}, "[19]": {"tested_on": "MDA-MB-231 breast"}, "[20]": {"tested_on": "HS 578T breast"}, "[21]": {"tested_on": "RPMI-8226 leukemia"}, "[22]": {"tested_on": "NCI-H23 lung"}, "[23]": {"tested_on": "ACHN renal"}, "[24]": {"tested_on": "HCC-2998 colon"}, "[25]": {"tested_on": "HCT-15 colon"}, "[26]": {"tested_on": "HL-60(TB) leukemia"}, "[27]": {"tested_on": "SF-295 CNS"}, "[28]": {"tested_on": "MDA-MB-435"}}, "note": "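How tested: cells in 96-well plates exposed to compound for 48 hours at five concentrations. At the GI50, growth is halved. TGI is the concentration that stops growth completely.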", "data": [{"smiles": "C#C[C@]1(O)CC[C@H]2[C@@H]3CC=C4c5sc(NCc6ccccc6)nc5CC[C@]4(C)[C@H]3CC[C@@]21C", "values": [{"measurement": "GI50", "setting": "[1]", "value": 2.08, "unit": "µM"}, {"measurement": "TGI", "setting": "[1]", "value": 4.41, "unit": "µM"}, {"measurement": "GI50", "setting": "[2]", "value": 4.66, "unit": "µM"}, {"measurement": "TGI", "setting": "[2]", "value": 16.6, "unit": "µM"}, {"measurement": "GI50", "setting": "[3]", "value": 3.85, "unit": "µM"}, {"measurement": "TGI", "setting": "[3]", "value": 16.4, "unit": "µM"}, {"measurement": "GI50", "setting": "[4]", "value": 1.8, "unit": "µM"}, {"measurement": "TGI", "setting": "[4]", "value": 5.8, "unit": "µM"}, {"measurement": "GI50", "setting": "[5]", "value": 2.76, "unit": "µM"}, {"measurement": "TGI", "setting": "[5]", "value": 16.6, "unit": "µM"}, {"measurement": "GI50", "setting": "[6]", "value": 1.56, "unit": "µM"}, {"measurement": "TGI", "setting": "[6]", "value": 7.34, "unit": "µM"}, {"measurement": "GI50", "setting": "[7]", "value": 11.3, "unit": "µM"}, {"measurement": "TGI", "setting": "[7]", "value": 37.1, "unit": "µM"}, {"measurement": "GI50", "setting": "[8]", "value": 2.59, "unit": "µM"}, {"measurement": "TGI", "setting": "[8]", "value": 8.04, "unit": "µM"}, {"measurement": "GI50", "setting": "[9]", "value": 4.55, "unit": "µM"}, {"measurement": "TGI", "setting": "[9]", "value": 17.6, "unit": "µM"}, {"measurement": "GI50", "setting": "[10]", "value": 1.68, "unit": "µM"}, {"measurement": "TGI", "setting": "[10]", "value": 3.54, "unit": "µM"}, {"measurement": "GI50", "setting": "[11]", "value": 3.18, "unit": "µM"}, {"measurement": "TGI", "setting": "[11]", "value": 10.8, "unit": "µM"}, {"measurement": "GI50", "setting": "[12]", "value": 2.66, "unit": "µM"}, {"measurement": "TGI", "setting": "[12]", "value": 8.69, "unit": "µM"}, {"measurement": "GI50", "setting": "[13]", "value": 2.91, "unit": "µM"}, {"measurement": "TGI", "setting": "[13]", "value": 8.8, "unit": "µM"}, {"measurement": "GI50", "setting": "[14]", "value": 3.23, "unit": "µM"}, {"measurement": "TGI", "setting": "[14]", "value": "> 100", "unit": "µM"}, {"measurement": "GI50", "setting": "[15]", "value": 7.54, "unit": "µM"}, {"measurement": "TGI", "setting": "[15]", "value": 40.5, "unit": "µM"}, {"measurement": "GI50", "setting": "[16]", "value": 3.37, "unit": "µM"}, {"measurement": "TGI", "setting": "[16]", "value": 11.5, "unit": "µM"}, {"measurement": "GI50", "setting": "[17]", "value": 1.82, "unit": "µM"}, {"measurement": "TGI", "setting": "[17]", "value": 3.72, "unit": "µM"}, {"measurement": "GI50", "setting": "[18]", "value": 3.16, "unit": "µM"}, {"measurement": "TGI", "setting": "[18]", "value": 29.6, "unit": "µM"}, {"measurement": "GI50", "setting": "[19]", "value": 2.64, "unit": "µM"}, {"measurement": "TGI", "setting": "[19]", "value": 7.07, "unit": "µM"}, {"measurement": "GI50", "setting": "[20]", "value": 2.02, "unit": "µM"}, {"measurement": "TGI", "setting": "[20]", "value": 6.42, "unit": "µM"}, {"measurement": "GI50", "setting": "[21]", "value": 1.65, "unit": "µM"}, {"measurement": "TGI", "setting": "[21]", "value": 4.53, "unit": "µM"}, {"measurement": "GI50", "setting": "[22]", "value": 4.4, "unit": "µM"}, {"measurement": "TGI", "setting": "[22]", "value": 20.8, "unit": "µM"}, {"measurement": "GI50", "setting": "[23]", "value": 3.92, "unit": "µM"}, {"measurement": "TGI", "setting": "[23]", "value": 15.9, "unit": "µM"}, {"measurement": "GI50", "setting": "[24]", "value": 4.05, "unit": "µM"}, {"measurement": "TGI", "setting": "[24]", "value": 14.1, "unit": "µM"}, {"measurement": "GI50", "setting": "[25]", "value": 1.7, "unit": "µM"}, {"measurement": "TGI", "setting": "[25]", "value": 4.15, "unit": "µM"}, {"measurement": "GI50", "setting": "[26]", "value": 3.01, "unit": "µM"}, {"measurement": "TGI", "setting": "[26]", "value": 9.19, "unit": "µM"}, {"measurement": "GI50", "setting": "[27]", "value": 1.94, "unit": "µM"}, {"measurement": "TGI", "setting": "[27]", "value": 4.08, "unit": "µM"}, {"measurement": "GI50", "setting": "[28]", "value": 3.73, "unit": "µM"}]}]}
